In patent US12460244B2, “Inhibitors of RNA-guided nuclease activity and uses thereof” (THE BROAD INSTITUTE, INC., priority 2018, dated 2025):
Entries after “also recorded” stand apart in the source; their conditions may differ.

Key:
SpCas9 [1] = molecular target: T1, SpCas9 (Streptococcus pyogenes serotype M1, UniProt Q99ZW2); test: Broad spectrum CRISPR inhibition, SpCas9 (FIG. 22A); type: biochemical, S. pyogenes
SpCas9 [2] = molecular target: T1, SpCas9; test: cell-based
SpCas9 [3] = molecular target: T1, SpCas9; settings: FIG. 16C
[4] = system: CRISPR mediated gene tagging with HiBiT; test: CRISPR mediated gene tagging with HiBiT in cells (bioluminescence); type: cell-based; settings: various concentrations; FIG. 17B
FnCpf1 = FnCpf1 (Francisella tularensis subsp. novicida, UniProt A0Q7Q2); type: biochemical; settings: FIG. 22B
Chain of FnCpf1 (A0Q7Q2 whole entry, looked up): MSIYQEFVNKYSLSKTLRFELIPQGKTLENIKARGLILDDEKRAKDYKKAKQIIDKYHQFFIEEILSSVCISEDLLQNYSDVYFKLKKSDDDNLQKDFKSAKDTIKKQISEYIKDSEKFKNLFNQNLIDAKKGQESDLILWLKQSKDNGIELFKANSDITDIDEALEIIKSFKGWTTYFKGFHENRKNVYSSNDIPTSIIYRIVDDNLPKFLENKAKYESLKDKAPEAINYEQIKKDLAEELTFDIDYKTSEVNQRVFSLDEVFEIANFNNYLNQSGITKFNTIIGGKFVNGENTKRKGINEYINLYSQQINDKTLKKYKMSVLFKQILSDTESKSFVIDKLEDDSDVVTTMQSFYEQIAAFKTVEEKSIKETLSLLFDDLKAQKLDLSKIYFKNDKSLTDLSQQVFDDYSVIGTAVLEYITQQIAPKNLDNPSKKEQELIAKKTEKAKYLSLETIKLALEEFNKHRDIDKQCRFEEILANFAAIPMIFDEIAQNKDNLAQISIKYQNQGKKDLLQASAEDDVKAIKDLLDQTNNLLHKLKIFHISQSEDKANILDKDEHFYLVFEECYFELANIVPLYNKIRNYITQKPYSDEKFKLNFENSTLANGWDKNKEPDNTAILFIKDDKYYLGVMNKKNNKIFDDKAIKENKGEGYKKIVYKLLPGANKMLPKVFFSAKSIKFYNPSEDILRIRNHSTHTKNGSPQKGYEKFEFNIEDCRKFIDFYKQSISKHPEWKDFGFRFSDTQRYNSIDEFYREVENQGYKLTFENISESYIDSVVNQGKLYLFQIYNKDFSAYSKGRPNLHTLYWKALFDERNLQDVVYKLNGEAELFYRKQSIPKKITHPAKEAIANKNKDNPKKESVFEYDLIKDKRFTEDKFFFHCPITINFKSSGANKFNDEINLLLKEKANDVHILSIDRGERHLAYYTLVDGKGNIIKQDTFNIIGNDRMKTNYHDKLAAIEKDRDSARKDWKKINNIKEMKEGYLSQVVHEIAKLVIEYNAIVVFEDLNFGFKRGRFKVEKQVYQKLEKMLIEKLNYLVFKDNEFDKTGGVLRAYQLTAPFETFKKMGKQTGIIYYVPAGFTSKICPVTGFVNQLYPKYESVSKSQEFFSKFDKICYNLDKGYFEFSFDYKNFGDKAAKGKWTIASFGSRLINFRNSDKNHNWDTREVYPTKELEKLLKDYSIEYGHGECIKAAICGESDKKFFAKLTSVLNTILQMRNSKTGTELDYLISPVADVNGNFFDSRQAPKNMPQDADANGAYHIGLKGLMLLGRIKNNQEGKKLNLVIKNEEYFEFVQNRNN

T1 sequence (Q99ZW2 whole entry): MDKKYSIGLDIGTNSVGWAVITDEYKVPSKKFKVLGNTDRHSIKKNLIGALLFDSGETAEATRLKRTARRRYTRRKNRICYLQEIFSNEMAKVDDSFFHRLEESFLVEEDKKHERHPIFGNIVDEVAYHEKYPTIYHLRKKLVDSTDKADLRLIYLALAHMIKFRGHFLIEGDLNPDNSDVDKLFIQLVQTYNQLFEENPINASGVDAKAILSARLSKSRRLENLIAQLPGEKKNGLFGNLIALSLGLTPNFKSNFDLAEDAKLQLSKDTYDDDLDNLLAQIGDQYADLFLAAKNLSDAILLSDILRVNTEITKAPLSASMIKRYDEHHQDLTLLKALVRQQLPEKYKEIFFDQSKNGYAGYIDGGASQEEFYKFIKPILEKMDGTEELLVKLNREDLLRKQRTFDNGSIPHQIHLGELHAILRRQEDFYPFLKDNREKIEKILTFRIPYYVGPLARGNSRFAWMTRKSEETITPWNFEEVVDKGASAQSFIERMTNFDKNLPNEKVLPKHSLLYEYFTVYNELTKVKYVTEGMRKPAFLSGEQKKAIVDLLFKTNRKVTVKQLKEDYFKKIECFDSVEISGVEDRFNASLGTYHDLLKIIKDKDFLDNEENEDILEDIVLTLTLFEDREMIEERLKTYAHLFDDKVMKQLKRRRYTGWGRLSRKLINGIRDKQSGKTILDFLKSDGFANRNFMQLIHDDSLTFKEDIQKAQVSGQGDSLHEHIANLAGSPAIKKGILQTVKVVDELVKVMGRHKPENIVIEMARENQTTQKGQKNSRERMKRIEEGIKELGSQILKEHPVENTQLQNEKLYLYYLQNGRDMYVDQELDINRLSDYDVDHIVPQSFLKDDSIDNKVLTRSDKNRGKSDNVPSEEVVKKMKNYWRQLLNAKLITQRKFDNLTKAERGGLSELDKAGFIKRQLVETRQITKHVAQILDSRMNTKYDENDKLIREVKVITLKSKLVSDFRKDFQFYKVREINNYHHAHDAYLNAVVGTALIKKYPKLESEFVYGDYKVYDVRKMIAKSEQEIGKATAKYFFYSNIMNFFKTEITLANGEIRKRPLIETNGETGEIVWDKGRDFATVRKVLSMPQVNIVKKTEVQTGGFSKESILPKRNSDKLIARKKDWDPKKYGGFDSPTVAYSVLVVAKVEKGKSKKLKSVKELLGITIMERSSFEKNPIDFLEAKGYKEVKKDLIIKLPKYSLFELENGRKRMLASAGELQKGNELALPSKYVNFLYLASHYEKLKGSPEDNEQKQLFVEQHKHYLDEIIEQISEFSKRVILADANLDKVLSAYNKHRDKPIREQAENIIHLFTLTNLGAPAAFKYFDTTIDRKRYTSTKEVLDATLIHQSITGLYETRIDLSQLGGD

N#C[C@@H]1N[C@H](CO)[C@H]1c1ccc(-c2ccccc2F)cc1 [BRD7608]
Inhibition of SpCas9 (SpCas9 [1]): broad-spectrum CRISPR inhibitors; also recorded: similarly inhibit
IC50 (SpCas9 [2]): 3.9 µM
eGFP fluorescence in the presence of eGFP-targeted SpCas9 activity (SpCas9 [3]): eGFP fluorescence is maintained
Inhibition of CRISPR mediated gene tagging with HiBiT (bioluminescence) [4]: inhibited in a dose-dependent manner
Inhibition of FnCpf1 (FnCpf1): broad-spectrum CRISPR inhibitors; also recorded: similarly inhibit

N#C[C@H]1N[C@@H](CO)[C@@H]1c1ccc(C#CC2CCCC2)cc1 [BRD9822]
Inhibition of SpCas9 (SpCas9 [1]): broad-spectrum CRISPR inhibitors; also recorded: similarly inhibit
IC50 (SpCas9 [2]): 5.5 µM
eGFP fluorescence in the presence of eGFP-targeted SpCas9 activity (SpCas9 [3]): eGFP fluorescence is maintained
Inhibition of CRISPR mediated gene tagging with HiBiT (bioluminescence) [4]: inhibited in a dose-dependent manner
Inhibition of FnCpf1 (FnCpf1): broad-spectrum CRISPR inhibitors; also recorded: similarly inhibit
